Values after ≈ are worked out from the molar mass of the structure shown. Like-named read-outs stand apart in the source and are kept apart here.
Legend:
Assay type in all cases: cell-based
[1] = tested on: Staphylococcus epidermidis EPI1; assay: microbe, parasite or virus in culture; settings: Staphylococcus epidermidis, EPI1
Protocol: (§1) The MIC's in Table II were determined by standard agar-dilution assays. The MIC's in Table III were obtained using a conventional broth-dilution microtiter test.

[2] = tested on: Staphylococcus aureus S13E; assay: microbe, parasite or virus in culture
Protocol: as §1

[3] = tested on: Staphylococcus epidermidis EPI2; assay: MIC, standard agar-dilution assay; settings: Staphylococcus epidermidis, EPI2
Protocol: as §1

[4] = tested on: Staphylococcus aureus X400; assay: MIC, standard agar-dilution assay; settings: Staphylococcus aureus, X400
Protocol: as §1

Mycoplasma gallisepticum = assay: MIC, conventional broth-dilution microtiter test; settings: Mycoplasmoides gallisepticum
Protocol: (§2) Certain of the derivatives are active against some gram-negative bacteria, such as Pasteurella species. The MIC's in Table II were determined by standard agar-dilution assays. The MIC's in Table III were obtained using a conventional broth-dilution microtiter test.

Streptococcus sp. 80 = assay: MIC, conventional broth-dilution microtiter test
Protocol: as §2

[5] = tested on: Pasteurella multocida 68C; assay: MIC, conventional broth-dilution microtiter test
Protocol: as §2

[6] = tested on: Pasteurella hemolytica 41D; assay: MIC, conventional broth-dilution microtiter test
Protocol: as §2

Staphylococcus aureus = assay: MIC, conventional broth-dilution microtiter test
Protocol: as §2

Mycoplasma hyorhinis = assay: MIC, conventional broth-dilution microtiter test
Protocol: as §2

[7] = tested on: Pasteurella multocida 22A; assay: MIC, conventional broth-dilution microtiter test
Protocol: as §2

[8] = tested on: Pasteurella hemolytica 22C; assay: MIC, conventional broth-dilution microtiter test
Protocol: as §2

[9] = tested on: Pasteurella multocida 17E; assay: MIC, conventional broth-dilution microtiter test
Protocol: as §2

Mycoplasma synoviae = assay: MIC, conventional broth-dilution microtiter test; settings: Mycoplasmopsis synoviae
Protocol: as §2

[10] = tested on: Mycoplasma gallisepticum 34159; assay: MIC, conventional broth-dilution microtiter test; settings: Mycoplasmoides gallisepticum
Protocol: as §2

[11] = tested on: Pasteurella multocida 60A; assay: MIC, conventional broth-dilution microtiter test
Protocol: as §2

[12] = tested on: Pasteurella hemolytica 23C; assay: MIC, conventional broth-dilution microtiter test
Protocol: as §2

[13] = tested on: Mycoplasma gallisepticum 41313; assay: MIC, conventional broth-dilution microtiter test; settings: Mycoplasmoides gallisepticum
Protocol: as §2

[14] = tested on: Pasteurella multocida 40G; assay: MIC, conventional broth-dilution microtiter test
Protocol: as §2

[15] = tested on: Klebsiella pneumoniae X26; assay: MIC, standard agar-dilution assay; settings: Klebsiella pneumoniae, X26
Protocol: as §2

Escherichia coli TEM = assay: MIC, standard agar-dilution assay; settings: Escherichia coli
Protocol: as §2

[16] = tested on: Klebsiella pneumoniae KAE; assay: MIC, standard agar-dilution assay; settings: Klebsiella pneumoniae
Protocol: as §2

[17] = tested on: Streptococcus Group D X66; assay: MIC, standard agar-dilution assay
Protocol: as §2

Escherichia coli EC14 = assay: MIC, standard agar-dilution assay; settings: Escherichia coli, EC14
Protocol: as §2

[18] = tested on: Streptococcus pyogenes C203; assay: MIC, standard agar-dilution assay; settings: Streptococcus pyogenes, C203
Protocol: as §2

[19] = tested on: Staphylococcus aureus X1.1; assay: MIC, standard agar-dilution assay; settings: Staphylococcus aureus, X1.1
Protocol: as §2

[20] = tested on: Streptococcus pyogenes 9960; assay: MIC, standard agar-dilution assay; settings: 9960
Protocol: as §2

[21] = tested on: Streptococcus pneumoniae Park I; assay: MIC, standard agar-dilution assay; settings: Streptococcus pneumoniae
Protocol: as §2

[22] = tested on: Staphylococcus aureus V41; assay: MIC, standard agar-dilution assay; settings: Staphylococcus aureus, V41
Protocol: as §2

For `CCC1OC(=O)CC(O)C(C)C(OC2OC(C)C(OC(C)=O)C(N(C)C)C2OC(C)=O)C(CCOC(=O)Cc2ccccc2)CC(C)C(=O)C=CC(C)=CC1CO` (stereo not shown) [Compound 54, 2',4'-Di-O-acetyl-20-O-phenylacetyl-20-dihydro-OMT], the MIC [1] was 2 µg/mL (≈ 2.49 µM), the MIC [2] was 2 µg/mL (≈ 2.49 µM) and the MIC [3] was 2 µg/mL (≈ 2.49 µM). The MIC [4] was 2 µg/mL (≈ 2.49 µM), the MIC (Mycoplasma gallisepticum) was 0.048 µg/mL (≈ 0.0599 µM) and the MIC (Streptococcus sp. 80; Streptococcus, SP.80) was 3.12 µg/mL (≈ 3.89 µM). For the same molecule, the MIC ([5]; Pasteurella multocida, 68C) was 6.25 µg/mL (≈ 7.79 µM), the MIC ([6]; Pasteurella, 41D) was 12.5 µg/mL (≈ 15.6 µM) and the MIC (Staphylococcus aureus) was 0.78 µg/mL (≈ 0.973 µM). The MIC (Mycoplasma hyorhinis; Mycoplasma) was 50 µg/mL (≈ 62.3 µM), the MIC ([7]; Pasteurella multocida, 22A) was 25 µg/mL (≈ 31.2 µM) and the MIC ([8]; Pasteurella, 22C) was 12.5 µg/mL (≈ 15.6 µM). It also gave an MIC ([9]; Pasteurella multocida, 17E) of 12.5 µg/mL (≈ 15.6 µM), an MIC (Mycoplasma synoviae) of 25 µg/mL (≈ 31.2 µM) and an MIC [10]; 34159 of 3.12 µg/mL (≈ 3.89 µM). It also gave an MIC ([11]; Pasteurella multocida, 60A) of 6.25 µg/mL (≈ 7.79 µM), an MIC ([12]; Pasteurella, 23C) of 12.5 µg/mL (≈ 15.6 µM) and an MIC [13]; 41313 of 0.78 µg/mL (≈ 0.973 µM). It also gave an MIC ([14]; Pasteurella multocida, 40G) of 25 µg/mL (≈ 31.2 µM), an MIC [15] of 4 µg/mL (≈ 4.99 µM) and an MIC (Escherichia coli TEM) of 16 µg/mL (≈ 20 µM). It also gave an MIC [16] of over 128 µg/mL, an MIC [17] of 4 µg/mL (≈ 4.99 µM) and an MIC (Escherichia coli EC14) of over 128 µg/mL. It also gave an MIC [18] of 1 µg/mL (≈ 1.25 µM), an MIC [19] of 2 µg/mL (≈ 2.49 µM) and an MIC [20] of 4 µg/mL (≈ 4.99 µM). For the same molecule, the MIC [21] was 0.5 µg/mL (≈ 0.623 µM) and the MIC [22] was 2 µg/mL (≈ 2.49 µM).

Molecule `CCC1OC(=O)CC(O)C(C)C(OC2OC(C)C(OC(C)=O)C(N(C)C)C2OC(C)=O)C(CCOC(=O)Cc2ccccc2)CC(C)C(=O)C=CC(C)=CC1COC(=O)Cc1ccccc1` (stereo not shown) [Compound 55, 2',4'-di-O-acetyl-20,23-di-O-phenylacetyl-20-dihydro-OMT] has an MIC [1] of 4 µg/mL (≈ 4.35 µM), an MIC [2] of 4 µg/mL (≈ 4.35 µM) and an MIC [3] of 2 µg/mL (≈ 2.17 µM). For the same molecule, the MIC [4] was 8 µg/mL (≈ 8.69 µM), the MIC (Mycoplasma gallisepticum) was 0.097 µg/mL (≈ 0.105 µM) and the MIC (Streptococcus sp. 80; Streptococcus, SP.80) was 1.56 µg/mL (≈ 1.7 µM). For the same molecule, the MIC ([5]; Pasteurella multocida, 68C) was over 50 µg/mL, the MIC ([6]; Pasteurella, 41D) was over 50 µg/mL and the MIC (Staphylococcus aureus) was 0.78 µg/mL (≈ 0.848 µM). For the same molecule, the MIC (Mycoplasma hyorhinis; Mycoplasma) was 50 µg/mL (≈ 54.3 µM), the MIC ([7]; Pasteurella multocida, 22A) was over 50 µg/mL and the MIC ([8]; Pasteurella, 22C) was over 50 µg/mL. It also gave an MIC ([9]; Pasteurella multocida, 17E) of over 50 µg/mL, an MIC (Mycoplasma synoviae) of 6.25 µg/mL (≈ 6.79 µM) and an MIC [10]; 34159 of 3.12 µg/mL (≈ 3.39 µM). For the same molecule, the MIC ([11]; Pasteurella multocida, 60A) was 50 µg/mL (≈ 54.3 µM), the MIC ([12]; Pasteurella, 23C) was over 50 µg/mL and the MIC [13]; 41313 was 0.78 µg/mL (≈ 0.848 µM). The MIC ([14]; Pasteurella multocida, 40G) was over 50 µg/mL, the MIC [15] was over 128 µg/mL and the MIC (Escherichia coli TEM) was over 128 µg/mL. It also gave an MIC [16] of over 128 µg/mL, an MIC [17] of 8 µg/mL (≈ 8.69 µM) and an MIC (Escherichia coli EC14) of over 128 µg/mL. For the same molecule, the MIC [18] was 2 µg/mL (≈ 2.17 µM), the MIC [19] was 8 µg/mL (≈ 8.69 µM) and the MIC [20] was 8 µg/mL (≈ 8.69 µM). The MIC [21] was 1 µg/mL (≈ 1.09 µM) and the MIC [22] was 8 µg/mL (≈ 8.69 µM).

In the case of `CCC1CC(C)C(=O)C=CC(C)=CC(CN2CCCCCCC2)C(CC)OC(=O)CC(O)C(C)C1OC1OC(C)C(OC(C)=O)C(N(C)C)C1OC(C)=O` (stereo not shown) [Compound 57], the MIC (Mycoplasma gallisepticum; broth-dilution microtiter, Mycoplasma gallisepticum, read-out: MIC) was 0.78 µg/mL (≈ 1.02 µM), the MIC (Streptococcus sp. 80; broth-dilution microtiter, Streptococcus sp. 80, read-out: MIC) was 0.195 µg/mL (≈ 0.256 µM) and the MIC ([5]; broth-dilution microtiter, Pasteurella multocida 68C, read-out: MIC) was 0.78 µg/mL (≈ 1.02 µM). For the same molecule, the MIC ([6]; broth-dilution microtiter, Pasteurella hemolytica 41D, read-out: MIC) was 0.78 µg/mL (≈ 1.02 µM), the MIC (Staphylococcus aureus; broth-dilution microtiter, read-out: MIC) was 0.39 µg/mL (≈ 0.511 µM) and the MIC (Mycoplasma hyorhinis; broth-dilution microtiter, Mycoplasma hyorhinis, read-out: MIC) was over 50 µg/mL. For the same molecule, the MIC ([7]; broth-dilution microtiter, Pasteurella multocida 22A, read-out: MIC) was 1.56 µg/mL (≈ 2.04 µM), the MIC ([8]; broth-dilution microtiter, Pasteurella hemolytica 22C, read-out: MIC) was 0.78 µg/mL (≈ 1.02 µM) and the MIC ([9]; broth-dilution microtiter, Pasteurella multocida 17E, Bovine isolate, read-out: MIC) was 1.56 µg/mL (≈ 2.04 µM). The MIC (Mycoplasma synoviae) was 12.5 µg/mL (≈ 16.4 µM), the MIC ([10]; broth-dilution microtiter, Mycoplasma gallisepticum 34159, Resistant strain, read-out: MIC) was 50 µg/mL (≈ 65.5 µM) and the MIC ([11]; broth-dilution microtiter, Pasteurella multocida 60A, Avian isolate, read-out: MIC) was 1.56 µg/mL (≈ 2.04 µM). The MIC ([12]; broth-dilution microtiter, Pasteurella hemolytica 23C, read-out: MIC) was 1.56 µg/mL (≈ 2.04 µM), the MIC ([13]; broth-dilution microtiter, Mycoplasma gallisepticum 41313, Resistant strain, read-out: MIC) was 50 µg/mL (≈ 65.5 µM) and the MIC ([14]; broth-dilution microtiter, Pasteurella multocida 40G, read-out: MIC) was 1.56 µg/mL (≈ 2.04 µM).

Source: patent US4468511A, “C-20- And C-23-Modified macrolide derivatives” (Eli Lilly and Company, priority 1983, dated 1984)
